Results taken from patent US10487093B2, “Heterocyclic compounds, in particular 2-oxo-4,4,5,5,6,6,7,7-octahydrobenzoxazole derivatives, and their use as antibacterial compounds” (priority 2016, dated 2019).
Values after ≈ are worked out from the molar mass of the structure shown.

What was measured:
[1] = system: human hepatic cell line (HepG2 ATCC HB-8065); assay: Human cell viability assay (CellTiter-Glo); conditions: Homo sapiens, HepG2, 24 h, read-out: IC50 (μg/mL) HepG2
[2] = system: Haemophilus influenzae ATCC 49247; assay: MIC, broth microdilution (CLSI) versus planktonic bacteria; format: cell-based; conditions: ATCC49247; Haemophilus influenzae ATCC 49247; 16-20 h; mode of three independent experiments; read-out: MIC, Hi ATCC 49247
[3] = system: Acinetobacter baumannii NCTC 13420; assay: as above; format: cell-based; conditions: NCTC13420; Acinetobacter baumannii NCTC 13420; 16-20 h; mode of three independent experiments; read-out: MIC, Ab NCTC 13420
[4] = system: E. coli MG1655; assay: as above; format: cell-based, Escherichia coli; conditions: Escherichia coli, MG1655, read-out: MIC, Ec MG1655 WT
[5] = system: E. coli ATCC BAA-2452; assay: as above; format: cell-based; conditions: Escherichia coli ATCC BAA-2452; 16-20 h; mode of three independent experiments; read-out: MIC, Ec ATCC BAA 2452
[6] = system: E. coli MG1655 D87G; format: cell-based, Escherichia coli; conditions: compared to the isogenic parent strain E. coli MG1655; D87G mutation on DNA gyrase subunit GyrA
[7] = system: E. coli MG1655 S83L; format: cell-based, Escherichia coli; conditions: compared to the isogenic parent strain E. coli MG1655; S83L mutation on DNA gyrase subunit GyrA
[8] = system: Acinetobacter baumannii ATCC 19606; assay: MIC, broth microdilution (CLSI) versus planktonic bacteria; format: cell-based; conditions: ATCC19606; Acinetobacter baumannii ATCC 19606; 16-20 h; mode of three independent experiments; read-out: MIC, Ab ATCC 19606
[9] = system: E. coli NCTC 13476; assay: as above; format: cell-based; conditions: NCTC13476; Escherichia coli NCTC 13476; 16-20 h; mode of three independent experiments; read-out: MIC, Ec NCTC 13476
[10] = system: Escherichia coli ATCC 25922; assay: as above; format: cell-based; conditions: ATCC25922; Escherichia coli ATCC 25922; 16-20 h; mode of three independent experiments; read-out: MIC, Ec ATCC 25922
[11] = system: Enterobacter cloacae NCTC 13406; assay: as above; format: cell-based; conditions: NCTC13406; Enterobacter cloacae NCTC 13406; 16-20 h; mode of three independent experiments; read-out: MIC, Ecl NCTC 13406
[12] = system: Pseudomonas aeruginosa ATCC 27853; assay: as above; format: cell-based; conditions: ATCC27853; Pseudomonas aeruginosa ATCC 27853; 16-20 h; mode of three independent experiments; read-out: MIC, Pa ATCC 27853

SMILES	IC50 [1] [µg/mL]	MIC [2] [µg/mL]	MIC [3] [µg/mL]	MIC [4] [µg/mL]	MIC [5] [µg/mL]	Fold increase in MIC, E. coli MG1655 D87G [6] [fold]	Fold increase in MIC, E. coli MG1655 S83L [7] [fold]	MIC [8] [µg/mL]	MIC [9] [µg/mL]	MIC [10] [µg/mL]	MIC [11] [µg/mL]	MIC [12] [µg/mL]
COc1ccc2ncc(=O)n(CCN[C@@H]3CC[C@@H]4[C@@H](C3)OC(=O)N4c3ccc4c(n3)NC(=O)CO4)c2c1 [Compound 21, 1-(2-{[(3aR,6R,7aR)-2-oxo-3-{3-oxo-2H,3H,4H-pyrido[3,2-b][1,4]oxazin-6-yl}-octahydro-1,3-benzoxazol-6-yl]amino}ethyl)-7-methoxy-1,2-dihydroquinoxalin-2-one]	> 100	< 1	< 1	< 1	< 1	2	1	< 1	< 1	< 1	< 1	< 1
Cc1ccc2ncc(=O)n(CCN[C@H]3CC[C@H]4[C@@H](C3)OC(=O)N4c3ccc4c(n3)NC(=O)CO4)c2c1 [Compound 27, 1-(2-{[(3aS,6S,7aR)-2-oxo-3-{3-oxo-2H,3H,4H-pyrido[3,2-b][1,4]oxazin-6-yl}-octahydro-1,3-benzoxazol-6-yl]amino}ethyl)-7-methyl-1,2-dihydroquinoxalin-2-one]	> 100	1 to 10 (≈ 2.04 to 20.4 µM)	1 to 10 (≈ 2.04 to 20.4 µM)	–	–	–	–	–	–	< 1	1 to 10 (≈ 2.04 to 20.4 µM)	1 to 10 (≈ 2.04 to 20.4 µM)
